Experimental data reported in patent US20240043427A1 (Gilead Sciences, Inc., priority 2020, published 2024).

What was measured:
CD73 [1] = target: T1, CD73 (Homo sapiens (Human), UniProt P21589); assay: MDA-MB-231 Cell Based CD73 Activity Assay (DMEM); conditions: MDA-MB-231-GFP cells, DMEM medium with 10% human plasma, 200 uM AMP
CD73 [2] = target: T1, CD73; type: biochemical; conditions: 1 mM NaH2PO4 in enzyme buffer, CD73 0.3 nM, AMP 15 uM

T1 sequence (P21589 27-574): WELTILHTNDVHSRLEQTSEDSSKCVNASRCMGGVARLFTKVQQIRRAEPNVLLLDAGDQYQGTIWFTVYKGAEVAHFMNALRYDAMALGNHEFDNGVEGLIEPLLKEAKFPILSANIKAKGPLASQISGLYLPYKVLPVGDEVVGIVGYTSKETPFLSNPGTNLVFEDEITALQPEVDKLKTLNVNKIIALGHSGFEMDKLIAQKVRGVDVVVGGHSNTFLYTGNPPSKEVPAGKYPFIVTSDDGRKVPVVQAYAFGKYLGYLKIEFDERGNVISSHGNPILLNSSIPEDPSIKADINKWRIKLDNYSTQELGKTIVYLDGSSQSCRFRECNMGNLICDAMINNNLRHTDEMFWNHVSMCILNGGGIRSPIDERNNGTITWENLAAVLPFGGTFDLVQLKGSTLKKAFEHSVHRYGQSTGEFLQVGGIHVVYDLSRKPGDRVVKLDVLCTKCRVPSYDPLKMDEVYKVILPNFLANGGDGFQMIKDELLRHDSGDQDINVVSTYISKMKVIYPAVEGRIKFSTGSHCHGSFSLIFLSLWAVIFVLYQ

| EC50 (CD73 [1]) | IC50 (CD73 [2]) | Compound |
| --- | --- | --- |
| 349 nM | 43.3 nM | C[C@H](COc1cc(-c2c[nH]c(=O)[nH]c2=O)nn2ccnc12)c1ccccc1 [Example 691, (S)-5-(8-(2-phenylpropoxy)imidazo[1,2-b]pyridazin-6-yl)pyrimidine-2,4(1H,3H)-dione] |
| 23.1 nM | 3.2 nM | O=c1[nH]cc(-c2cc(OCC(F)(F)c3ccccn3)c3nccn3n2)c(=O)[nH]1 [Example 692, 5-(8-(2,2-difluoro-2-(pyridin-2-yl)ethoxy)imidazo[1,2-b]pyridazin-6-yl)pyrimidine-2,4(1H,3H)-dione] |
| 49.4 nM | 9.78 nM | Cn1ccnc1C(F)(F)COc1cc(-c2c[nH]c(=O)[nH]c2=O)nn2ccnc12 [Example 693, 5-(8-(2,2-difluoro-2-(1-methyl-1H-imidazol-2-yl)ethoxy)imidazo[1,2-b]pyridazin-6-yl)pyrimidine-2,4(1H,3H)-dione] |
| 0.23 nM | 0.61 nM | CC(C)NC(=O)OCC(F)(F)COc1cc(-c2c[nH]c(=O)[nH]c2=O)nn2ccnc12 [Example 694, 3-((6-(2,4-dioxo-1,2,3,4-tetrahydropyrimidin-5-yl)imidazo[1,2-b]pyridazin-8-yl)oxy)-2,2-difluoropropyl isopropylcarbamate] |
| 17.4 nM | 1.82 nM | O=c1[nH]cc(-c2cc(OCC(F)(F)COc3ccccn3)c3nccn3n2)c(=O)[nH]1 [Example 695, 5-(8-(2,2-difluoro-3-(pyridin-2-yloxy)propoxy)imidazo[1,2-b]pyridazin-6-yl)pyrimidine-2,4(1H,3H)-dione] |
| 105 nM | 0.51 nM | O=C(OCC(F)(F)F)OCC(F)(F)COc1cc(-c2c[nH]c(=O)[nH]c2=O)nn2ccnc12 [Example 696, 3-((6-(2,4-dioxo-1,2,3,4-tetrahydropyrimidin-5-yl)imidazo[1,2-b]pyridazin-8-yl)oxy)-2,2-difluoropropyl (2,2,2-trifluoroethyl) carbonate] |
| 0.27 nM | 0.65 nM | O=c1[nH]cc(-c2cc([C@H]3C[C@@H]3c3ccc4c(F)nn(CC(F)(F)F)c4c3)c3ncc(F)n3n2)c(=O)[nH]1 [Example 697, 5-(3-fluoro-8-((1S,2S)-2-(3-fluoro-1-(2,2,2-trifluoroethyl)-1H-indazol-6-yl)cyclopropyl)imidazo[1,2-b]pyridazin-6-yl)pyrimidine-2,4(1H,3H)-dione] |
| 0.81 nM | 3.84 nM | CC1(C)C(=O)N(CC(F)(F)F)c2cc([C@H]3C[C@@H]3c3cc(-c4c[nH]c(=O)[nH]c4=O)nn4ccnc34)cnc21 [Example 698, 5-(8-((1S,2S)-2-(3,3-dimethyl-2-oxo-1-(2,2,2-trifluoroethyl)-2,3-dihydro-1H-pyrrolo[3,2-b]pyridin-6-yl)cyclopropyl)imidazo[1,2-b]pyridazin-6-yl)pyrimidine-2,4(1H,3H)-dione] |
| 0.56 nM | 3.15 nM | CC1(C)C(=O)N(CC(F)(F)F)c2cc([C@H]3C[C@@H]3c3cc(-c4c[nH]c(=O)[nH]c4=O)nn4ccnc34)cnc21 [Example 699, 5-(8-((1S,2S)-2-(3,3-dimethyl-2-oxo-1-(2,2,2-trifluoroethyl)-2,3-dihydro-1H-pyrrolo[3,2-b]pyridin-6-yl)cyclopropyl)imidazo[1,2-b]pyridazin-6-yl)pyrimidine-2,4(1H,3H)-dione] |
| 0.54 nM | 4.37 nM | CC1(C)C(=O)N(CC(F)(F)F)c2cc([C@H]3C[C@@H]3c3cc(-c4c[nH]c(=O)[nH]c4=O)nn4ccnc34)ncc21 [Example 700, 5-(8-((1S,2S)-2-(3,3-dimethyl-2-oxo-1-(2,2,2-trifluoroethyl)-2,3-dihydro-1H-pyrrolo[3,2-c]pyridin-6-yl)cyclopropyl)imidazo[1,2-b]pyridazin-6-yl)pyrimidine-2,4(1H,3H)-dione] |
| 2.56 nM | 3.04 nM | O=c1[nH]cc(-c2cc([C@H]3C[C@@H]3c3ccc4c(C(F)(F)F)cn(CC(F)(F)F)c4n3)c3nccn3n2)c(=O)[nH]1 [Example 701, 5-(8-((1S,2S)-2-(1-(2,2,2-trifluoroethyl)-3-(trifluoromethyl)-1H-pyrrolo[2,3-b]pyridin-6-yl)cyclopropyl)imidazo[1,2-b]pyridazin-6-yl)pyrimidine-2,4(1H,3H)-dione] |
| 0.26 nM | 1.7 nM | CC1(C)C(=O)N(CC(F)(F)F)c2cc([C@H]3C[C@@H]3c3cc(-c4c[nH]c(=O)[nH]c4=O)nn4c(F)cnc34)ccc21 [Example 702, 5-(8-((1S,2S)-2-(3,3-dimethyl-2-oxo-1-(2,2,2-trifluoroethyl)indolin-6-yl)cyclopropyl)-3-fluoroimidazo[1,2-b]pyridazin-6-yl)pyrimidine-2,4(1H,3H)-dione] |
| 0.14 nM | 1.24 nM | CC1(C)C(=O)N(CC(F)(F)F)c2cc([C@H]3C[C@@H]3c3cc(-c4c[nH]c(=O)[nH]c4=O)nn4ccnc34)ccc21 [Example 703, 5-(8-((1S,2S)-2-(3,3-dimethyl-2-oxo-1-(2,2,2-trifluoroethyl)indolin-6-yl)cyclopropyl)imidazo[1,2-b]pyridazin-6-yl)pyrimidine-2,4(1H,3H)-dione] |
| 0.36 nM | 0.73 nM | O=c1[nH]cc(-c2cc([C@H]3C[C@@H]3c3ccc4ccn(CC(F)(F)F)c4n3)c3nccn3n2)c(=O)[nH]1 [Example 704, 5-(8-((1S,2S)-2-(1-(2,2,2-trifluoroethyl)-1H-pyrrolo[2,3-b]pyridin-6-yl)cyclopropyl)imidazo[1,2-b]pyridazin-6-yl)pyrimidine-2,4(1H,3H)-dione] |
| 0.07 nM | 0.4 nM | O=c1[nH]cc(-c2cc([C@H]3C[C@@H]3c3cc4c(ccn4CC(F)(F)F)cn3)c3nccn3n2)c(=O)[nH]1 [Example 705, 5-(8-((1S,2S)-2-(1-(2,2,2-trifluoroethyl)-1H-pyrrolo[3,2-c]pyridin-6-yl)cyclopropyl)imidazo[1,2-b]pyridazin-6-yl)pyrimidine-2,4(1H,3H)-dione] |
| 0.15 nM | 0.33 nM | O=c1[nH]cc(-c2cc([C@H]3C[C@@H]3c3cc4c(cn3)c(F)cn4CC(F)(F)F)c3nccn3n2)c(=O)[nH]1 [Example 706, 5-(8-((1S,2S)-2-(3-fluoro-1-(2,2,2-trifluoroethyl)-1H-pyrrolo[3,2-c]pyridin-6-yl)cyclopropyl)imidazo[1,2-b]pyridazin-6-yl)pyrimidine-2,4(1H,3H)-dione] |
| 8.88 nM | 2.65 nM | O=c1[nH]cc(-c2cc([C@H]3C[C@@H]3c3ccc4ccn(CC(F)(F)F)c(=O)c4c3)c3nccn3n2)c(=O)[nH]1 [Example 707, 5-(8-((1S,2S)-2-(1-oxo-2-(2,2,2-trifluoroethyl)-1,2-dihydroisoquinolin-7-yl)cyclopropyl)imidazo[1,2-b]pyridazin-6-yl)pyrimidine-2,4(1H,3H)-dione] |
| 6.21 nM | 3.3 nM | O=c1[nH]cc(-c2cc([C@H]3C[C@@H]3c3ccc4c(c3)c(=O)ccn4CC(F)(F)F)c3nccn3n2)c(=O)[nH]1 [Example 708, 5-(8-((1S,2S)-2-(4-oxo-1-(2,2,2-trifluoroethyl)-1,4-dihydroquinolin-6-yl)cyclopropyl)imidazo[1,2-b]pyridazin-6-yl)pyrimidine-2,4(1H,3H)-dione] |
| 0.4 nM | 1.24 nM | O=c1[nH]cc(-c2cc([C@H]3C[C@@H]3c3ccc4nccc(OCC(F)(F)F)c4c3)c3nccn3n2)c(=O)[nH]1 [Example 709, 5-(8-((1S,2S)-2-(4-(2,2,2-trifluoroethoxy)quinolin-6-yl)cyclopropyl)imidazo[1,2-b]pyridazin-6-yl)pyrimidine-2,4(1H,3H)-dione] |
| 4.06 nM | 1.43 nM | O=c1[nH]cc(-c2cc([C@H]3C[C@@H]3c3ccc4cncc(OCC(F)(F)F)c4c3)c3nccn3n2)c(=O)[nH]1 [Example 710, 5-(8-((1S,2S)-2-(4-(2,2,2-trifluoroethoxy)isoquinolin-6-yl)cyclopropyl)imidazo[1,2-b]pyridazin-6-yl)pyrimidine-2,4(1H,3H)-dione] |
| 0.19 nM | 0.7 nM | Cc1cc([C@H]2C[C@@H]2c2cc(-c3c[nH]c(=O)[nH]c3=O)nn3ccnc23)cc2c1cnn2CC(F)(F)F [Example 714, 5-(8-((1S,2S)-2-(4-methyl-1-(2,2,2-trifluoroethyl)-1H-indazol-6-yl)cyclopropyl)imidazo[1,2-b]pyridazin-6-yl)pyrimidine-2,4(1H,3H)-dione] |
| 0.32 nM | 1.42 nM | O=C1N(CC(F)(F)F)c2cc([C@H]3C[C@@H]3c3cc(-c4c[nH]c(=O)[nH]c4=O)nc4ccnn34)ccc2C12CC2 [Example 715, 5-(7-((1S,2S)-2-(2′-oxo-1′-(2,2,2-trifluoroethyl)spiro[cyclopropane-1,3′-indolin]-6′-yl)cyclopropyl)pyrazolo[1,5-a]pyrimidin-5-yl)pyrimidine-2,4(1H,3H)-dione] |
| 0.28 nM | 0.35 nM | O=c1[nH]cc(-c2cc([C@H]3C[C@@H]3c3ccc4cnn(CC(F)(F)F)c4c3)n3ncc(F)c3n2)c(=O)[nH]1 [Example 716, 5-(3-fluoro-7-((1S,2S)-2-(1-(2,2,2-trifluoroethyl)-1H-indazol-6-yl)cyclopropyl)pyrazolo[1,5-a]pyrimidin-5-yl)pyrimidine-2,4(1H,3H)-dione] |
| 0.26 nM | 0.69 nM | O=c1[nH]cc(-c2cc([C@H]3C[C@@H]3c3cnc4c(F)nn(CC(F)(F)F)c4c3)c3nccn3n2)c(=O)[nH]1 [Example 717, 5-[8-[(1S,2S)-2-[3-fluoro-1-(2,2,2-trifluoroethyl)pyrazolo[4,3-b]pyridin-6-yl]cyclopropyl]imidazo[1,2-b]pyridazin-6-yl]-1H-pyrimidine-2,4-dione] |
| 0.46 nM | 0.51 nM | O=c1[nH]cc(-c2cc([C@H]3C[C@@H]3c3cnc4c(F)nn(CC(F)(F)F)c4c3)c3ncc(Cl)n3n2)c(=O)[nH]1 [Example 719, 5-[3-chloro-8-[(1S,2S)-2-[3-fluoro-1-(2,2,2-trifluoroethyl)pyrazolo[4,3-b]pyridin-6-yl]cyclopropyl]imidazo[1,2-b]pyridazin-6-yl]-1H-pyrimidine-2,4-dione] |
